According to PMC11597725, “New Asymmetric Gemini Triazole Surfactants with a Polar Triethylene Glycol Fragment: Synthesis and Physico-Chemical Properties” (Molecules, 2024):

Molecular target: T1, bovine serum albumin (BSA) (Bos taurus, UniProt P02769)
T1 construct: gene ALB; native serum protein, BSA powder dissolved in buffer; mature form expected
Experiment: tryptophan fluorescence quenching, double-log plot
Assay type: binding
Settings: 25 mM Tris-HCl pH 7.4, 298.15 K, BSA 10 μM, surfactant 0-700 μM
Description: tryptophan fluorescence quenching, double-log plot on bovine serum albumin (BSA)

T1 sequence (P02769 25-607): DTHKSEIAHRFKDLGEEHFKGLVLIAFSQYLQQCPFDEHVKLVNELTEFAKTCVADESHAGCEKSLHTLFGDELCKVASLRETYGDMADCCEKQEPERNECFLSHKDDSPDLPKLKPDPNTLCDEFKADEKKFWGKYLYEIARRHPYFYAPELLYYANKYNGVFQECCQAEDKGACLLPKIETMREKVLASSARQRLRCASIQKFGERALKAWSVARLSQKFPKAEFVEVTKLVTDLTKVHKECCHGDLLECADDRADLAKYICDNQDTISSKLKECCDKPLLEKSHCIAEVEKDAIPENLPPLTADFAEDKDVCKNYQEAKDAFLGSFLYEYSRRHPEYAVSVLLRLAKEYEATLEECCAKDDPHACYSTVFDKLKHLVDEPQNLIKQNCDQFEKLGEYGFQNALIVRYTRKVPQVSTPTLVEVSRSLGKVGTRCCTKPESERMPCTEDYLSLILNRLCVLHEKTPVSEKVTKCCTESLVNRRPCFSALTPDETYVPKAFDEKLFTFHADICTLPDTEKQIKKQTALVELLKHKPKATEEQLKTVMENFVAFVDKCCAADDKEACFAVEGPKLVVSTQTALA

Structure (SMILES) | Kb [M⁻¹]
CCCCCCCCCCCCCCn1cc[n+](CCC[n+]2ccn(CCCn3cc(COCCOCCOCCOC)nn3)c2)c1 [14c, 1-(3-(4-(2,5,8,11-tetraoxadodecyl)-1H-1,2,3-triazol-1-yl)propyl)-3-(3-(1-tetradecyl-1H-imidazol-3-ium-3-yl)propyl)-1H-imidazol-3-ium dibromide] | 44900
CCCCCCCCn1cc[n+](CCC[n+]2ccn(CCOCCn3cc(COCCOCCOCCOC)nn3)c2)c1 [15b, 1-(2-(2-(4-(2,5,8,11-tetraoxadodecyl)-1H-1,2,3-triazol-1-yl)ethoxy)ethyl)-3-(3-(1-octyl-1H-imidazol-3-ium-3-yl)propyl)-1H-imidazol-3-ium dibromide] | 10400
CCCCCCCCn1cc[n+](CCCn2cc[n+](CCCn3cc(COCCOCCOCCOC)nn3)c2)c1 [14b, 1-(3-(4-(2,5,8,11-tetraoxadodecyl)-1H-1,2,3-triazol-1-yl)propyl)-3-(3-(1-octyl-1H-imidazol-3-ium-3-yl)propyl)-1H-imidazol-3-ium dibromide] | 20700
CCCCn1cc[n+](CCC[n+]2ccn(CCOCCn3cc(COCCOCCOCCOC)nn3)c2)c1 [15a, 1-(2-(2-(4-(2,5,8,11-tetraoxadodecyl)-1H-1,2,3-triazol-1-yl)ethoxy)ethyl)-3-(3-(1-butyl-1H-imidazol-3-ium-3-yl)propyl)-1H-imidazol-3-ium dibromide] | 790
COCCOCCOCCOCc1cn(CCCn2cc[n+](CCC[n+]3ccn(CCCn4cc(COCCOCCOCCOC)nn4)c3)c2)nn1 [14d, 3,3′-(propane-1,3-diyl)bis(1-(3-(4-(2,5,8,11-tetraoxadodecyl)-1H-1,2,3-triazol-1-yl)propyl)-1H-imidazol-3-ium) dibromide] | 34800
COCCOCCOCCOCc1cn(CCOCCn2cc[n+](CCC[n+]3ccn(CCOCCn4cc(COCCOCCOCCOC)nn4)c3)c2)nn1 [15d, 3,3′-(propane-1,3-diyl)bis(1-(2-(2-(4-(2,5,8,11-tetraoxadodecyl)-1H-1,2,3-triazol-1-yl)ethoxy)ethyl)-1H-imidazol-3-ium) dibromide] | 10000
CCCCn1cc[n+](CCCn2cc[n+](CCCn3cc(COCCOCCOCCOC)nn3)c2)c1 [14a, 1-(3-(4-(2,5,8,11-tetraoxadodecyl)-1H-1,2,3-triazol-1-yl)propyl)-3-(3-(1-butyl-1H-imidazol-3-ium-3-yl)propyl)-1H-imidazol-3-ium dibromide] | 730
CCCCCCCCCCCCCCn1cc[n+](CCC[n+]2ccn(CCOCCn3cc(COCCOCCOCCOC)nn3)c2)c1 [15c, 1-(2-(2-(4-(2,5,8,11-tetraoxadodecyl)-1H-1,2,3-triazol-1-yl)ethoxy)ethyl)-3-(3-(1-tetradecyl-1H-imidazol-3-ium-3-yl)propyl)-1H-imidazol-3-ium dibromide] | 10900
